Assay results as given in patent publication US10160867B2, “Benzoxaborole-containing coating resistant to cellulose-supportable fungus” (THE PENN STATE RESEARCH FOUNDATION, priority 2015, dated 2018).
Converted amounts (≈) assume the structure as drawn.

What was measured:
Aspergillus flavus = assay: 3 day MIC, broth microdilution in 25% PDB; assay type: cell-based; conditions: 72 h
How it was run: (§1)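 Modified CLSI M38-A2 broth microdilution; spore inoculum (in water with 0.1% Tween 20, counted by hemocytometer) at final 0.4-1×10^5 spores/mL. Compounds from DMSO stocks, final about 0.5-2% v/v DMSO. Sealed plates incubated at about 25° C; growth checked at 48 and 72 hours.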

Aspergillus niger = assay: 3 day MIC, broth microdilution in 25% PDB; assay type: cell-based; conditions: 72 h
How it was run: as §1

Aureobasidium pullulans = assay: 3 day MIC, broth microdilution in 25% PDB; assay type: cell-based; conditions: 72 h
How it was run: as §1

[1] = system: Cladosporium cladosporioides; assay: 3 day MIC, broth microdilution in 25% PDB; assay type: cell-based; conditions: 72 h
How it was run: as §1

Fusarium oxysparum ST-33 = assay: 3 day MIC, broth microdilution in 25% PDB; assay type: cell-based; conditions: ST33, 72 h
How it was run: as §1

Mucor spp. = assay: 3 day MIC, broth microdilution in 25% PDB; assay type: cell-based; conditions: 72 h
How it was run: as §1

Rhizopus spp. = assay: 3 day MIC, broth microdilution in 25% PDB; assay type: cell-based; conditions: 72 h
How it was run: as §1

Alternaria alternata = assay: Fungus resistance test for painted surfaces containing antifungal additives (defacement rating); assay type: cell-based; parameters: key: 10 = no defacement, 0 = completely defaced; conditions: +100 μg/mL in Olympic Home paint
Procedure: (§2) A Defacement Rating is measured by estimating the percentage of surface defacement with 10 being no defacement and 0 begin completely defaced.
(§3) This test was used to evaluate the resistance of paint films containing antifungal additives to surface fungal growth.
(§4) Olympic® Home interior flat latex paint (PPG Industries, Pittsburgh, Pa.) and Valspar® QuikHide White flat interior paint (Valspar Corporation, Minneapolis, Minn.) were used for all studies unless otherwise noted. Stock solutions of the antifungal additives of interest were prepared in reagent grade dimethyl sulfoxide (DMSO; Alfa Aesar, Ward Hill, Mass.). Additives were spiked (by adding appropriate amounts of the antifungal stock solutions) into the liquid paint at specified concentrations. Samples of the additive-spiked paint were vigorously mixed with a vortex mixer for at least one minute to ensure uniform dispersion of the additive in the paint. […] Studies that use other brands of paint followed the same protocol as described for those using the Olympic® Home interior flat latex paint and Valspar® QuikHide paint.
(§5) Test surfaces were prepared in triplicate. In most cases, the tested conditions were repeated on a different date, again in triplicate. […] Two coats of paint were applied with a polyester brush to completely cover both faces of the filter paper disc, allowing at least four hours drying time between coats.
(§6) Nutrient-Salts Agar (NSA) medium was prepared according to ASTM method G21-13 in 100×15 mm sterile polystyrene petri dishes (VWR® Radnor, Pa.) with a solidified agar layer of about 3 to about 6 mm (⅛ to ¼ in.) in depth. The agar was allowed to solidify for at least 24 hours before being used. The painted test filter paper discs were placed in the center of the agar plates in a biosafety hood while wearing clean nitrile gloves.
(§7) The paint coatings were evaluated against three representative cellulose-supportable fungi: Stachybotrys chartarum, Penicillium chrysogenum, and Alternaria alternata. […] Fungal isolates of Alternaria alternata and Penicillium chrysogenum were obtained from the Plant Pathology and Environmental Microbiology Department at Penn State University.
(§8) A spore suspension of each of these fungi was prepared by pouring a 20-mL portion of autoclaved deionized water containing 0.01% Tween® 20 onto a subculture of each fungal species. Spores were counted with the use of a hemocytometer (Hausser Scientific, Horsham, Pa.) under a compound light microscope. Spore suspensions of Stachybotrys chartarum and Penicillium chrysogenum were diluted to 1×10^6 spores/mL with autoclaved deionized water. Spore suspensions of Alternaria alternata were used “as is” in the range of 200,000 to 400,000 spores/mL.
(§9) Painted test surfaces were inoculated with a spray bottle or with a sterile cotton-tipped applicator. To inoculate the sample with a spray bottle, the spore suspension was sprayed twice on the painted test discs with an autoclaved spray bottle that delivered approximately 0.14 g of fluid per spray. To inoculate the sample with a cotton-tipped applicator, an autoclaved cotton-tipped applicator was submerged in approximately 400 μL of the spore inoculum solution (spore concentrations described above) and applied evenly over the surface of the painted test surface twice. A fresh autoclaved cotton-tipped applicator was used for the application of each painted disc. All the paint studies with Alternaria alternata and Stachybotrys chartarum were inoculated using the spray bottle method. For studies with Penicillium chrysogenum using Olympic® Home paint, the spray bottle inoculation method was used. For studies with Penicillium chrysogenum using Valspar® QuikHide paint, the cotton-tipped applicator inoculation method was used.
(§10) After inoculation, the NSA agar plates were sealed with Parafilm®.

Penicillium chrysogenum = assay: as above; assay type: cell-based; parameters: key: 10 = no defacement, 0 = completely defaced
Procedure: as §2, §3, §4, §5, §6, §7, §8, §9, §10

Stachybotrys chartarum = assay: as above; assay type: cell-based; parameters: key: 10 = no defacement, 0 = completely defaced; conditions: +100 μg/mL in Olympic Home paint
Procedure: as §2, §3, §4, §5, §6, §7, §8, §9, §10

[2] = commercially available fungicidal agents; cited from earlier work
[3] = +100 μg/mL in Olympic Home paint, 7 days
[4] = +100 μg/mL in Olympic Home paint, 14 days
[5] = +100 μg/mL in Olympic Home paint, 21 days
[6] = +200 μg/mL in Olympic Home paint, 7 days
[7] = +200 μg/mL in Olympic Home paint, 14 days
[8] = +200 μg/mL in Olympic Home paint, 21 days
[9] = +200 μg/mL in Valspar QuikHide paint, 7 days
[10] = +200 μg/mL in Valspar QuikHide paint, 14 days
[11] = +200 μg/mL in Valspar QuikHide paint, 21 days

Compound | MIC (Aspergillus flavus) [µg/mL] | MIC (Aspergillus niger) [µg/mL] | MIC (Mucor spp.) [µg/mL] | MIC (Rhizopus spp.) [µg/mL] | Average defacement rating ± standard deviation (Alternaria alternata; 7 days) | Average defacement rating ± standard deviation (Alternaria alternata; 14 days) | Average defacement rating ± standard deviation (Alternaria alternata; 21 days) | Average defacement rating ± standard deviation (Penicillium chrysogenum; [3]) | Average defacement rating ± standard deviation (Penicillium chrysogenum; [4]) | Average defacement rating ± standard deviation (Penicillium chrysogenum; [5]) | Average defacement rating ± standard deviation (Penicillium chrysogenum; [6]) | Average defacement rating ± standard deviation (Penicillium chrysogenum; [7]) | Average defacement rating ± standard deviation (Penicillium chrysogenum; [8]) | Average defacement rating ± standard deviation (Penicillium chrysogenum; [9]) | Average defacement rating ± standard deviation (Penicillium chrysogenum; [10]) | Average defacement rating ± standard deviation (Penicillium chrysogenum; [11]) | Average defacement rating ± standard deviation (Stachybotrys chartarum; 7 days) | Average defacement rating ± standard deviation (Stachybotrys chartarum; 14 days) | Average defacement rating ± standard deviation (Stachybotrys chartarum; 21 days) | Solubility in water [2] | also measured
OB1OCc2cc(F)ccc21 [Compound B9, 5-Fluoro-1,3-dihydro-2,1-benzoxaborol-1-ol] | 1 (≈ 6.58 µM) | 0.25 (≈ 1.65 µM) | 0.25 (≈ 1.65 µM) | 0.5 (≈ 3.29 µM) | 7.4±1.8 | 3.8 ± 0.9 | 3.8±0.9 | 3.7 ± 1.5 | 0.0 ± 0.0 | 0.0 ± 0.0 | 10.0 ± 0.0 | 9.8 ± 0.4 | 6.7 ± 3.9 | 10.0 ± 0.0 | 10.0 ± 0.0 | 9.7 ± 0.6 | 9.9±0.3 | 4.4 ± 2.9 | 2.0 ± 2.8 | – | MIC (Aureobasidium pullulans): 0.125 µg/mL (≈ 0.823 µM); MIC [1]: 0.1 µg/mL (≈ 0.658 µM); MIC (Fusarium oxysparum ST-33): 0.25 µg/mL (≈ 1.65 µM)
CCCCCCCCn1sccc1=O [OIT, 2-Octyl-4-isothiazolin-3-one] | – | – | – | – | 8.1±0.3 | 6.9 ± 1.0 | 4.9±0.7 | 10.0 ± 0.0 | 10.0 ± 0.0 | 9.3 ± 1.5 | 10.0 ± 0.0 | 10.0 ± 0.0 | 9.8 ± 0.4 | 10.0 ± 0.0 | 10.0 ± 0.0 | 10.0 ± 0.0 | 9.9 ± 0.3 | 8.2 ± 2.5 | 6.9 ± 2.4 | – | –
CCCCNC(=O)OCC#CI [IPBC, 3-Iodo-2-propynylbutylcarbamate] | – | – | – | – | 9.9 ± 0.4 | 8.4 ± 2.7 | 7.5 ± 3.4 | 10.0 ± 0.0 | 9.4 ± 0.4 | 9.4 ± 0.4 | 10.0 ± 0.0 | 10.0 ± 0.0 | 9.3 ± 0.8 | 10.0 ± 0.0 | 10.0 ± 0.0 | 10.0 ± 0.0 | 9.9±0.3 | 8.1 ± 1.5 | 6.1±2.7 | 156 mg/L (≈ 555 µM) | –
N#Cc1c(Cl)c(Cl)c(Cl)c(C#N)c1Cl [Chlorothalonil, chlorothalonil] | 0.2 (≈ 0.752 µM) | 0.4 (≈ 1.5 µM) | 0.8 (≈ 3.01 µM) | 0.8 (≈ 3.01 µM) | 1.9 ± 2.4 | 0.5 ± 1.8 | 0.5 ± 1.8 | 4.9 ± 1.9 | 0.0 ± 0.0 | 0.0 ± 0.0 | 8.3 ± 1.4 | 0.8 ± 2.0 | 0.0 ± 0.0 | 10.0 ± 0.0 | 5.3 ± 0.6 | 0.3 ± 0.6 | 5.8 ± 3.0 | 0.8 ± 1.8 | 0.6 ± 1.7 | <100 mg/L | –
Oc1cc(Cl)ccc1Oc1ccc(Cl)cc1Cl [Triclosan, triclosan] | – | – | – | – | 0.1 ± 0.4 | 0.0 ± 0.0 | 0.0 ± 0.0 | 1.8 ± 1.4 | 0.0 ± 0.0 | 0.0 ± 0.0 | 9.3 ± 0.5 | 0.2 ± 0.4 | 0.0 ± 0.0 | 4.0 ± 3.6 | 0.0 ± 0.0 | 0.0 ± 0.0 | 0.8 ± 1.4 | 0.0 ± 0.0 | 0.0 ± 0.0 | 12,000 mg/L | –
O=C1C2CC=CCC2C(=O)N1SC(Cl)(Cl)Cl (stereo not shown) [Captan] | 25 (≈ 83.2 µM) | 16 (≈ 53.2 µM) | 3.1 (≈ 10.3 µM) | 12.5 (≈ 41.6 µM) | 0.1 ± 0.3 | 0.0 ± 0.0 | 0.0 ± 0.0 | 3.2 ± 1.8 | 0.0 ± 0.0 | 0.0 ± 0.0 | – | – | – | – | – | – | 2.9 ± 3.3 | 0.0 ± 0.0 | 0.0 ± 0.0 | 3.3 mg/L (≈ 11 µM) | MIC (Aureobasidium pullulans): 0.8 µg/mL (≈ 2.66 µM); MIC (Fusarium oxysparum ST-33): 2 µg/mL (≈ 6.65 µM); Average defacement rating ± standard deviation (Alternaria alternata; 7 days, listed as captan): 0.1±0.3
